Key:
Type in all cases: in vivo
[1] = tested on: crabgrass, large (large crabgrass, Digitaria sanguinalis); experiment: Test A pre-/postemergence: crabgrass, large
In short: (§1)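 Soil medium was loam blended with sand; treatments pre- and postemergence were applied concurrently, postemergence at one- to two-leaf stage. Approximately ten days in greenhouse preceded visual comparison with untreated controls, scored 0 (no effect) to 100 (complete control).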

[2] = tested on: foxtail, giant (giant foxtail, Setaria faberii); experiment: Test A pre-/postemergence: foxtail, giant
In short: as §1

corn (Zea mays) = experiment: Test A pre-/postemergence: corn
In short: as §1

[3] = tested on: winter wheat (Triticum aestivum); experiment: Test C pre-/postemergence: winter wheat
In short: (§2)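 Visual injury scored 0–100 (100 = complete control) against untreated controls after 13–15 greenhouse days. Surfactant-containing solvent formulations applied either to soil after sowing (loam/sand) or over 1- to 4-leaf plants, 2–18 cm tall.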

wild oat (Avena fatua) = experiment: Test C pre-/postemergence: wild oat
In short: as §2

[4] = tested on: large crabgrass (Digitaria sanguinalis); experiment: Test C pre-/postemergence: large crabgrass
In short: as §2

[5] = tested on: foxtail, giant (giant foxtail, Setaria faberii); experiment: Test C pre-/postemergence: foxtail, giant
In short: as §2

kochia (Kochia scoparia) = experiment: Test C pre-/postemergence: kochia
In short: as §2

[6] = tested on: pigweed (Amaranthus retroflexus); experiment: Test C pre-/postemergence: pigweed
In short: as §2

[7] = tested on: ragweed (common ragweed, Ambrosia elation); experiment: Test C pre-/postemergence: ragweed
In short: as §2

soybean (Glycine max) = experiment: Test C pre-/postemergence: soybean
In short: as §2

[8] = tested on: velvetleaf (Abutilon theophrasti); experiment: Test C pre-/postemergence: velvetleaf
In short: as §2

[9] = Postemergence, 125 g ai/ha, 0 to 100 scale, 0 is no effect, 100 is complete control
[10] = Postemergence, 500 g ai/ha, visual rating on 0 to 100 scale (0 no effect, 100 complete control), approximately ten days
[11] = Preemergence, 125 g ai/ha, 0 to 100 scale where 0 is no effect and 100 is complete control
[12] = Preemergence, 500 g ai/ha, 0 to 100 scale (0 no effect, 100 complete control)
[13] = Postemergence, 31 g ai/ha, scale 0 to 100 (0 no effect, 100 complete control)
[14] = Postemergence, 62 g ai/ha, scale 0 to 100 (0 no effect, 100 complete control)
[15] = Postemergence, 125 g ai/ha, scale 0 to 100, 0 no effect, 100 complete control
[16] = Postemergence, 250 g ai/ha, scale 0 to 100
[17] = Preemergence, 62 g ai/ha, scale of 0 to 100, 0 is no effect, 100 is complete control
[18] = Preemergence, 125 g ai/ha, scale 0 to 100, 0 no effect, 100 complete control
[19] = Preemergence, 250 g ai/ha, scale 0 to 100, 0 no effect, 100 complete control
[20] = Preemergence, 31 g ai/ha, scale of 0 to 100, 0 is no effect, 100 is complete control
[21] = Postemergence, 500 g ai/ha, 0 to 100 scale, 0 is no effect, 100 is complete control
[22] = Postemergence, 250 g ai/ha, scale 0 to 100 (0 no effect, 100 complete control)
[23] = Preemergence, 31 g ai/ha, scale 0 (no effect) to 100 (complete control)

Fc1ccc(-n2nc(Cc3ccnc(C(F)(F)F)c3)c(OCC(F)(F)F)n2)cc1 [Compound 142]
Crabgrass, Large plant response rating [1, 9]: 100 | Crabgrass, Large plant response rating [1, 10]: 100 | Plant response rating, Crabgrass, Large [1, 11]: 100 | Plant response rating, Crabgrass, Large [1, 12]: 100 | Foxtail, Giant plant response rating [2, 9]: 100 | Foxtail, Giant plant response rating [2, 10]: 100 | Plant response rating, Foxtail, Giant [2, 11]: 100 | Plant response rating, Foxtail, Giant [2, 12]: 100 | Corn plant response rating (corn (Zea mays); [9]): 50 | Corn plant response rating (corn (Zea mays); [10]): 80 | Plant response rating, Corn (corn (Zea mays); [11]): 30 | Plant response rating, Corn (corn (Zea mays); [12]): 80 | Plant response rating, Wheat [3, 13]: 15 | Plant response rating, Wheat [3, 14]: 25 | Plant response rating, Wheat [3, 15]: 40 | Plant response rating, Wheat [3, 16]: 45 | Plant response rating, Wheat [3, 17]: 5 | Plant response rating, Wheat [3, 18]: 35 | Plant response rating, Wheat [3, 19]: 50 | Plant response rating, Oat, Wild (wild oat (Avena fatua); [13]): 35 | Plant response rating, Oat, Wild (wild oat (Avena fatua); [14]): 45 | Plant response rating, Oat, Wild (wild oat (Avena fatua); [15]): 70 | Plant response rating, Oat, Wild (wild oat (Avena fatua); [16]): 70 | Plant response rating, Oat, Wild (wild oat (Avena fatua); [20]): 85 | Plant response rating, Oat, Wild (wild oat (Avena fatua); [17]): 85 | Plant response rating, Oat, Wild (wild oat (Avena fatua); [18]): 85 | Plant response rating, Oat, Wild (wild oat (Avena fatua); [19]): 90 | Plant response rating, Crabgrass, Large [4, 13]: 65 | Plant response rating, Crabgrass, Large [4, 14]: 80 | Plant response rating, Crabgrass, Large [4, 15]: 95 | Plant response rating, Crabgrass, Large [4, 16]: 95 | Plant response rating, Crabgrass, Large [4, 20]: 100 | Plant response rating, Crabgrass, Large [4, 17]: 100 | Plant response rating, Crabgrass, Large [4, 18]: 100 | Plant response rating, Crabgrass, Large [4, 19]: 100 | Plant response rating, Foxtail, Giant [5, 13]: 20 | Plant response rating, Foxtail, Giant [5, 14]: 75 | Plant response rating, Foxtail, Giant [5, 15]: 80 | Plant response rating, Foxtail, Giant [5, 16]: 90 | Plant response rating, Foxtail, Giant [5, 20]: 100 | Plant response rating, Foxtail, Giant [5, 17]: 100 | Plant response rating, Foxtail, Giant [5, 18]: 100 | Plant response rating, Foxtail, Giant [5, 19]: 100 | Plant response rating, Kochia (kochia (Kochia scoparia); [13]): 80 | Plant response rating, Kochia (kochia (Kochia scoparia); [14]): 90 | Plant response rating, Kochia (kochia (Kochia scoparia); [15]): 95 | Plant response rating, Kochia (kochia (Kochia scoparia); [16]): 95 | Plant response rating, Kochia (kochia (Kochia scoparia); [20]): 55 | Plant response rating, Kochia (kochia (Kochia scoparia); [17]): 80 | Plant response rating, Kochia (kochia (Kochia scoparia); [18]): 98 | Plant response rating, Kochia (kochia (Kochia scoparia); [19]): 100 | Plant response rating, Pigweed [6, 13]: 98 | Plant response rating, Pigweed [6, 14]: 98 | Plant response rating, Pigweed [6, 15]: 98 | Plant response rating, Pigweed [6, 16]: 98 | Plant response rating, Pigweed [6, 20]: 98 | Plant response rating, Pigweed [6, 17]: 98 | Plant response rating, Pigweed [6, 18]: 100 | Plant response rating, Pigweed [6, 19]: 100 | Plant response rating, Ragweed [7, 13]: 65 | Plant response rating, Ragweed [7, 14]: 70 | Plant response rating, Ragweed [7, 15]: 75 | Plant response rating, Ragweed [7, 16]: 75 | Plant response rating, Ragweed [7, 20]: 40 | Plant response rating, Ragweed [7, 17]: 40 | Plant response rating, Ragweed [7, 18]: 70 | Plant response rating, Ragweed [7, 19]: 80 | Plant response rating, Soybean (soybean (Glycine max); [13]): 50 | Plant response rating, Soybean (soybean (Glycine max); [14]): 55 | Plant response rating, Soybean (soybean (Glycine max); [15]): 55 | Plant response rating, Soybean (soybean (Glycine max); [16]): 55 | Plant response rating, Soybean (soybean (Glycine max); [20]): 0 | Plant response rating, Soybean (soybean (Glycine max); [17]): 5 | Plant response rating, Soybean (soybean (Glycine max); [18]): 5 | Plant response rating, Soybean (soybean (Glycine max); [19]): 20 | Plant response rating, Velvetleaf [8, 13]: 30 | Plant response rating, Velvetleaf [8, 14]: 50 | Plant response rating, Velvetleaf [8, 15]: 55 | Plant response rating, Velvetleaf [8, 16]: 75 | Plant response rating, Velvetleaf [8, 20]: 35 | Plant response rating, Velvetleaf [8, 17]: 75 | Plant response rating, Velvetleaf [8, 18]: 80 | Plant response rating, Velvetleaf [8, 19]: 100

CCOc1nn(-c2ccc(F)cc2)nc1Cc1ccnc(C(F)F)c1 [Compound 195]
Plant response rating, Crabgrass, Large [1, 9]: 90 | Crabgrass, Large plant response rating [1, 21]: 90 | Plant response rating, Crabgrass, Large [1, 11]: 100 | Plant response rating, Crabgrass, Large [1, 12]: 100 | Plant response rating, Foxtail, Giant [2, 9]: 90 | Foxtail, Giant plant response rating [2, 21]: 90 | Plant response rating, Foxtail, Giant [2, 11]: 100 | Plant response rating, Foxtail, Giant [2, 12]: 100 | Plant response rating, Corn (corn (Zea mays); [9]): 30 | Corn plant response rating (corn (Zea mays); [21]): 60 | Plant response rating, Corn (corn (Zea mays); [11]): 20 | Plant response rating, Corn (corn (Zea mays); [12]): 30 | Plant response rating, Wheat [3, 13]: 10 | Plant response rating, Wheat [3, 14]: 20 | Plant response rating, Wheat [3, 15]: 25 | Plant response rating, Wheat [3, 22]: 30 | Plant response rating, Wheat [3, 23]: 0 | Plant response rating, Wheat [3, 17]: 5 | Plant response rating, Wheat [3, 18]: 5 | Plant response rating, Wheat [3, 19]: 30 | Plant response rating, Oat, Wild (wild oat (Avena fatua); [13]): 60 | Plant response rating, Oat, Wild (wild oat (Avena fatua); [14]): 75 | Plant response rating, Oat, Wild (wild oat (Avena fatua); [15]): 80 | Plant response rating, Oat, Wild (wild oat (Avena fatua); [22]): 85 | Plant response rating, Oat, Wild (wild oat (Avena fatua); [23]): 80 | Plant response rating, Oat, Wild (wild oat (Avena fatua); [17]): 90 | Plant response rating, Oat, Wild (wild oat (Avena fatua); [19]): 90 | Plant response rating, Crabgrass, Large [4, 13]: 55 | Plant response rating, Crabgrass, Large [4, 14]: 60 | Plant response rating, Crabgrass, Large [4, 15]: 90 | Plant response rating, Crabgrass, Large [4, 16]: 95 | Plant response rating, Crabgrass, Large [4, 23]: 98 | Plant response rating, Crabgrass, Large [4, 17]: 100 | Plant response rating, Crabgrass, Large [4, 18]: 100 | Plant response rating, Crabgrass, Large [4, 19]: 100 | Plant response rating, Foxtail, Giant [5, 13]: 35 | Plant response rating, Foxtail, Giant [5, 14]: 35 | Plant response rating, Foxtail, Giant [5, 15]: 75 | Plant response rating, Foxtail, Giant [5, 16]: 90 | Plant response rating, Foxtail, Giant [5, 23]: 98 | Plant response rating, Foxtail, Giant [5, 17]: 98 | Plant response rating, Foxtail, Giant [5, 18]: 100 | Plant response rating, Foxtail, Giant [5, 19]: 100 | Plant response rating, Kochia (kochia (Kochia scoparia); [13]): 75 | Plant response rating, Kochia (kochia (Kochia scoparia); [14]): 85 | Plant response rating, Kochia (kochia (Kochia scoparia); [15]): 90 | Plant response rating, Kochia (kochia (Kochia scoparia); [22]): 95 | Plant response rating, Kochia (kochia (Kochia scoparia); [23]): 60 | Plant response rating, Kochia (kochia (Kochia scoparia); [17]): 75 | Plant response rating, Kochia (kochia (Kochia scoparia); [19]): 95 | Plant response rating, Pigweed [6, 13]: 95 | Plant response rating, Pigweed [6, 14]: 95 | Plant response rating, Pigweed [6, 15]: 98 | Plant response rating, Pigweed [6, 22]: 98 | Plant response rating, Pigweed [6, 23]: 98 | Plant response rating, Pigweed [6, 17]: 98 | Plant response rating, Pigweed [6, 18]: 100 | Plant response rating, Pigweed [6, 19]: 100 | Plant response rating, Ragweed [7, 14]: 50 | Plant response rating, Ragweed [7, 15]: 70 | Plant response rating, Ragweed [7, 22]: 85 | Plant response rating, Ragweed [7, 23]: 15 | Plant response rating, Ragweed [7, 17]: 20 | Plant response rating, Ragweed [7, 18]: 20 | Plant response rating, Ragweed [7, 19]: 55 | Plant response rating, Soybean (soybean (Glycine max); [13]): 40 | Plant response rating, Soybean (soybean (Glycine max); [14]): 40 | Plant response rating, Soybean (soybean (Glycine max); [15]): 65 | Plant response rating, Soybean (soybean (Glycine max); [22]): 65 | Plant response rating, Soybean (soybean (Glycine max); [23]): 0 | Plant response rating, Soybean (soybean (Glycine max); [17]): 0 | Plant response rating, Soybean (soybean (Glycine max); [18]): 0 | Plant response rating, Soybean (soybean (Glycine max); [19]): 25 | Plant response rating, Velvetleaf [8, 13]: 45 | Plant response rating, Velvetleaf [8, 14]: 50 | Plant response rating, Velvetleaf [8, 15]: 60 | Plant response rating, Velvetleaf [8, 22]: 65 | Plant response rating, Velvetleaf [8, 23]: 10 | Plant response rating, Velvetleaf [8, 17]: 25 | Plant response rating, Velvetleaf [8, 18]: 55 | Plant response rating, Velvetleaf [8, 19]: 90

Reference: US9302999B2, “Substituted triazoles as herbicides” (E. I. DU PONT DE NEMOURS AND COMPANY, priority 2012, dated 2016)
